Reference: paper PMC2639596, “Antimicrobial peptides effectively kill a broad spectrum of Listeria monocytogenes and Staphylococcus aureus strains independently of origin, sub-type, or virulence factor expression” (BMC Microbiology, 2008)

Tests used:
[1] = test system: L. monocytogenes and S. aureus; assay: Minimum bactericidal concentration (MBC), plating from MIC wells; type: cell-based, Listeria monocytogenes, Staphylococcus aureus; settings: 99.9% reduction of initial inoculum; 10 μl from wells with no visible growth plated on BHI agar
Description: (§1) The strain collection was tested for sensitivity to protamine, plectasin, novicidin, and novispirin G10 by determining their minimal inhibitory concentration (MIC) using a microbroth dilution method. Colonies from a BHI agar plate incubated overnight were suspended in MHB pH 7.4 to a turbidity of 0.11–0.12 at 546 nm (approx. 1.0 × 10^8 CFU/ml) and diluted in MHB to a concentration of 5.0 × 10^5 CFU/ml. 90 μl of bacterial suspension was incubated with 10 μl of peptide solution in polypropylene 96-well plates (Nunc, 442587) for 18–24 h at 37°C. The peptide solutions were made fresh on the day of assay and diluted two-fold. The range of concentrations assayed were 0.031–32 μg/ml for novicidin, 0.125–128 μg/ml for protamine and novispirin G10, and 0.25–256 μg/ml for plectasin. MIC was the lowest peptide concentration at which visual growth was inhibited. The minimum bactericidal concentration (MBC) values were determined by plating l0 μl samples from wells with no visible growth onto BHI agar plates. MBC was the lowest concentration of each peptide of which 99.9% reduction of the initial inoculum was observed.

[2] = test system: Staphylococcus aureus; assay: MIC of host defense peptides in liquid medium (microbroth dilution); type: cell-based; settings: 37°C; for MIC values against S. aureus (range over strains): range over 16 strains, MHB pH 7.4, 18–24 h; for MIC: 18–24 h
Description: (§2) Experiments were carried out with a collection of 25 Listeria monocytogenes strains (Table 1) and 16 Staphylococcus aureus strains (Table 2) representing different lineages and serotypes (L. monocytogenes), spa types (S. aureus), and origins (food processing environment, food products, and human clinical isolates). Six L. monocytogenes strains were mutants of the EGD strain and were mutated in genes known to be involved in stress tolerance. The S. aureus collection comprised two deletion mutants, strains Sa113/ΔmprF [8] and Sa113/ΔdltA [7], known to be more sensitive to host defense peptides. Two of the S. aureus strains could not immediately be assigned to an existing spa type and we are in the process of acquiring the additional information that is needed to assign a new spa type to them. The strains were obtained from The National Institute of Aquatic Resources and The National Food Institute, Technical University of Denmark, Faculty of Life Sciences, University of Copenhagen, Denmark, Statens Serum Institut, Denmark, University of Würzburg, Germany and Campden Food and Drink Association, United Kingdom. Stock cultures were stored at -80°C in 4% (w/V) glycerol, 0.5% (w/V) glucose, and 2.0% (w/V) skimmed milk powder. The bacteria were grown in Brain Heart Infusion (BHI) broth (Oxoid, CM0225), Tryptone Soy Broth (TSB) (Oxoid, CM129), and cation-adjusted Mueller-Hinton II Broth (MHB) (Becton Dickinson, 212322) adjusted to pH 7.4. To avoid unspecific binding of host defense peptides to plastic ware and agar, all MIC determinations were carried out using polypropylene plastic ware and radial diffusion assays were carried out in MHB supplemented with 1% agarose (Invitrogen, 15510-027) as gelling agent.
(§3) Protamine was purchased from Sigma (P4020-5G). Plectasin, novicidin, and novispirin G10 were supplied by Novozymes A/S. Recombinant HBD-3 was purchased from PeproTech (300-52).
as §1

[3] = test system: Listeria monocytogenes; assay: as above; type: cell-based; settings: 37°C; for MIC values against L. monocytogenes (range over strains): range over 25 strains, MHB pH 7.4, 18–24 h; for MIC: 18–24 h
Description: as §2, §3, §1

[4] = strain 796, MHB pH 7.4, 5.0 × 10^5 CFU/ml
[5] = strain 2148-jvi, MHB pH 7.4, 5.0 × 10^5 CFU/ml
[6] = strain 8325-4 (wildtype), MHB pH 7.4, 5.0 × 10^5 CFU/ml
[7] = strain 14943, MHB pH 7.4, 5.0 × 10^5 CFU/ml
[8] = strain 15033, MHB pH 7.4, 5.0 × 10^5 CFU/ml
[9] = strain B29997, MHB pH 7.4, 5.0 × 10^5 CFU/ml
[10] = strain B31369, MHB pH 7.4, 5.0 × 10^5 CFU/ml
[11] = strain J15033, MHB pH 7.4, 5.0 × 10^5 CFU/ml
[12] = strain K3-B2, MHB pH 7.4, 5.0 × 10^5 CFU/ml
[13] = strain KES 439, MHB pH 7.4, 5.0 × 10^5 CFU/ml
[14] = strain KES 626, MHB pH 7.4, 5.0 × 10^5 CFU/ml
[15] = strain KES 735, MHB pH 7.4, 5.0 × 10^5 CFU/ml
[16] = strain KES 855, MHB pH 7.4, 5.0 × 10^5 CFU/ml
[17] = strain Sa113 (wildtype), MHB pH 7.4, 5.0 × 10^5 CFU/ml
[18] = strain ΔdltA (Sa113 dltA ins), MHB pH 7.4, 5.0 × 10^5 CFU/ml
[19] = strain ΔmprF (Sa113 mprF del), MHB pH 7.4, 5.0 × 10^5 CFU/ml
[20] = strain 2275 (EGD dps del), MHB pH 7.4, 5.0 × 10^5 CFU/ml
[21] = strain 2307 (EGD resD del), MHB pH 7.4, 5.0 × 10^5 CFU/ml
[22] = strain 2315 (EGD sigB del), MHB pH 7.4, 5.0 × 10^5 CFU/ml
[23] = strain 2317 (EGD prfA del), MHB pH 7.4, 5.0 × 10^5 CFU/ml
[24] = strain 2374 (EGD perR ins), MHB pH 7.4, 5.0 × 10^5 CFU/ml
[25] = strain 2375 (EGD perR del), MHB pH 7.4, 5.0 × 10^5 CFU/ml
[26] = strain 4239, MHB pH 7.4, 5.0 × 10^5 CFU/ml
[27] = strain 4446, MHB pH 7.4, 5.0 × 10^5 CFU/ml
[28] = strain 4459, MHB pH 7.4, 5.0 × 10^5 CFU/ml
[29] = strain 4666, MHB pH 7.4, 5.0 × 10^5 CFU/ml
[30] = strain 6895, MHB pH 7.4, 5.0 × 10^5 CFU/ml
[31] = strain 7291, MHB pH 7.4, 5.0 × 10^5 CFU/ml
[32] = strain 7418, MHB pH 7.4, 5.0 × 10^5 CFU/ml
[33] = strain EGD (wildtype), MHB pH 7.4, 5.0 × 10^5 CFU/ml
[34] = strain H13-1, MHB pH 7.4, 5.0 × 10^5 CFU/ml
[35] = strain LO28 (wildtype), MHB pH 7.4, 5.0 × 10^5 CFU/ml
[36] = strain La22, MHB pH 7.4, 5.0 × 10^5 CFU/ml
[37] = strain La111, MHB pH 7.4, 5.0 × 10^5 CFU/ml
[38] = strain M103-1, MHB pH 7.4, 5.0 × 10^5 CFU/ml
[39] = strain N53-1, MHB pH 7.4, 5.0 × 10^5 CFU/ml
[40] = strain No40-1, MHB pH 7.4, 5.0 × 10^5 CFU/ml
[41] = strain O57, MHB pH 7.4, 5.0 × 10^5 CFU/ml
[42] = strain R479a, MHB pH 7.4, 5.0 × 10^5 CFU/ml
[43] = strain Scott A, MHB pH 7.4, 5.0 × 10^5 CFU/ml
[44] = strain V518a, MHB pH 7.4, 5.0 × 10^5 CFU/ml

With novicidin the “minimum bactericidal concentrations (MBC)” value [1] was “identical to the MICs”, the “MIC values against S. aureus (range over strains)” value [2] was 0.5 to 12 µg/mL and the MIC [2, 4] was 6 µg/mL. The MIC [2, 5] was 4 µg/mL, the MIC [2, 6] was 8 µg/mL and the MIC [2, 7] was 8 µg/mL. The MIC [2, 8] was 8 µg/mL, the MIC [2, 9] was 4 µg/mL and the MIC [2, 10] was 12 µg/mL. For the same substance, the MIC [2, 11] was 8 µg/mL, the MIC [2, 12] was 4 µg/mL and the MIC [2, 13] was 4 µg/mL. For the same substance, the MIC [2, 14] was 4 µg/mL, the MIC [2, 15] was 4 µg/mL and the MIC [2, 16] was 4 µg/mL. It also gave an MIC [2, 17] of 6 µg/mL, an MIC [2, 18] of 0.5 µg/mL and an MIC [2, 19] of 1 µg/mL. The “MIC values against L. monocytogenes (range over strains)” value [3] was 2 to 8 µg/mL, the MIC [3, 20] was 4 µg/mL and the MIC [3, 21] was 2 µg/mL. For the same substance, the MIC [3, 22] was 4 µg/mL, the MIC [3, 23] was 4 µg/mL and the MIC [3, 24] was 4 µg/mL. The MIC [3, 25] was 4 µg/mL, the MIC [3, 26] was 4 µg/mL and the MIC [3, 27] was 4 µg/mL. For the same substance, the MIC [3, 28] was 4 µg/mL, the MIC [3, 29] was 8 µg/mL and the MIC [3, 30] was 4 µg/mL. For the same substance, the MIC [3, 31] was 8 µg/mL, the MIC [3, 32] was 4 µg/mL and the MIC [3, 33] was 4 µg/mL. It also gave an MIC [3, 34] of 4 µg/mL, an MIC [3, 35] of 2 µg/mL and an MIC [3, 36] of 4 µg/mL. It also gave an MIC [3, 37] of 4 µg/mL, an MIC [3, 38] of 4 µg/mL and an MIC [3, 39] of 2 µg/mL. For the same substance, the MIC [3, 40] was 4 µg/mL, the MIC [3, 41] was 4 µg/mL and the MIC [3, 42] was 4 µg/mL. For the same substance, the MIC [3, 43] was 4 µg/mL and the MIC [3, 44] was 8 µg/mL.

With protamine the “MIC values against S. aureus (range over strains)” value [2] was 8 to 32 µg/mL, the MIC [2, 4] was 16 µg/mL and the MIC [2, 5] was 16 µg/mL. For the same substance, the MIC [2, 6] was 16 µg/mL, the MIC [2, 7] was 16 µg/mL and the MIC [2, 8] was 32 µg/mL. The MIC [2, 9] was 16 µg/mL, the MIC [2, 10] was 16 µg/mL and the MIC [2, 11] was 16 µg/mL. The MIC [2, 12] was 16 µg/mL, the MIC [2, 13] was 32 µg/mL and the MIC [2, 14] was 16 µg/mL. For the same substance, the MIC [2, 15] was 16 µg/mL, the MIC [2, 16] was 16 µg/mL and the MIC [2, 17] was 16 µg/mL. For the same substance, the MIC [2, 18] was 8 µg/mL, the MIC [2, 19] was 8 µg/mL and the “MIC values against L. monocytogenes (range over strains)” value [3] was 8 to 32 µg/mL. For the same substance, the MIC [3, 20] was 16 µg/mL, the MIC [3, 21] was 8 µg/mL and the MIC [3, 22] was 8 µg/mL. For the same substance, the MIC [3, 23] was 16 µg/mL, the MIC [3, 24] was 32 µg/mL and the MIC [3, 25] was 32 µg/mL. The MIC [3, 26] was 32 µg/mL, the MIC [3, 27] was 16 µg/mL and the MIC [3, 28] was 16 µg/mL. For the same substance, the MIC [3, 29] was 8 µg/mL, the MIC [3, 30] was 16 µg/mL and the MIC [3, 31] was 32 µg/mL. The MIC [3, 32] was 32 µg/mL, the MIC [3, 33] was 8 µg/mL and the MIC [3, 34] was 16 µg/mL. It also gave an MIC [3, 35] of 8 µg/mL, an MIC [3, 36] of 16 µg/mL and an MIC [3, 37] of 8 µg/mL. For the same substance, the MIC [3, 38] was 32 µg/mL, the MIC [3, 39] was 16 µg/mL and the MIC [3, 40] was 16 µg/mL. It also gave an MIC [3, 41] of 16 µg/mL, an MIC [3, 42] of 16 µg/mL and an MIC [3, 43] of 16 µg/mL. The MIC [3, 44] was 32 µg/mL.
